Test results published in publication PMC7395068, “The evolution of strategies to minimise the risk of human drug-induced liver injury (DILI) in drug discovery and development” (Archives of Toxicology, 2020).
Where two headings read alike, the source gives them in different places.

How the values were obtained:
[1] = cited from earlier work
[2] = plasma free fraction; cited from earlier work
HepG2 cells [3] = details: In vitro Assay; ref Tolosa 2012; cited from earlier work
HepaRG spheroids = test: Combined HCI (HCS) and cellular ATP 3D assay in HepaRG spheroids; details: for AC50 / minimal effective concentration: Homo sapiens
hLiMTs [4] = details: cited from earlier work
human hepatocytes = details: cited from earlier work
[5] = cited from earlier work; remark: listed apart in the source
[6] = tested on: primary human hepatocytes, NIH3T3 fibroblasts, BSEP, CYP3A4; details: cited from earlier work
[7] = ref Chen 2011; cited from earlier work
[8] = read-out: Human plasma Cmax; total plasma Cmax.tot, median of 9 literature references; cited from earlier work
Upcyte human hepatocytes = details: In vitro Assay; ref Tolosa 2019; cited from earlier work
[9] = tested on: HepG2 cells, primary human hepatocytes; details: In vitro Assay; ref Garside 2014; cited from earlier work
HepG2 cells [10] = details: cited from earlier work
HepG2 cells [11] = details: cited from earlier work; remark: listed apart in the source
PHH spheroids = details: cited from earlier work
[12] = Plasma free fraction (fu) and unbound Cmax (Cmax,u); assay type: in vitro ADME, human; details: unbound plasma Cmax
[13] = tested on: HepG2 C3A spheroid, BSEP, Glu/Gal in HepG2 cells, bioactivation; details: cited from earlier work
[14] = tested on: THLE-Null and THLE-3A4 cells; details: In vitro Assay; ref Gustafsson 2014; cited from earlier work
hLiMTs [15] = test: Combined HCI (HCS) and cellular ATP 3D assay in hLiMTs
rBsep = details: In vitro Assay; ref Dawson 2012; cited from earlier work
PHH = details: cited from earlier work
[16] = tested on: THLE or HepG2 cells, isolated mitochondria, BSEP; details: cited from earlier work
[17] = Microtissue model structural based (HCI), combined HCS and ATP, MEC < 25 × Cmax.tot cut-off
[18] = In vitro Assay, ref Proctor 2017
[19] = In vitro Assay, ref Schadt 2015
[20] = In vitro Assay, ref Persson 2013
[21] = Modeled in vitro assays (cytotoxicity, mitochondrial dysfunction, BSEP), ref Aleo et al. 2019

HepaRG <25x Avg Cmax ATP (HepaRG spheroids; HepaRG, ATP endpoint, cut-off <25x Avg Cmax): +ve
HepaRG <100x Avg Cmaxu ATP (HepaRG spheroids; HepaRG, ATP endpoint, cut-off <100x Avg Cmaxu): +ve (<100x Avg Cmaxu)
HepaRG <25x Avg Cmax HCS (HepaRG spheroids; HepaRG, HCS endpoints, cut-off <25x Avg Cmax): +ve
HepaRG <100x Avg Cmaxu HCS (HepaRG spheroids; HepaRG, HCS endpoints, cut-off <100x Avg Cmaxu): +ve (<100x Avg Cmaxu)
HepaRG <25x Avg Cmax All (HepaRG spheroids; HepaRG, all endpoints (ATP and HCS), cut-off <25x Avg Cmax): +ve
HepaRG Cmax max All (HepaRG spheroids; HepaRG, all endpoints, Cmax max used): +ve
HepaRG Cmax min All (HepaRG spheroids; HepaRG, all endpoints, Cmax min used): +ve
HepaRG <10 uM All (HepaRG spheroids; HepaRG, all endpoints, cut-off <10 uM): +ve (<10 uM)
HepaRG <100x Avg Cmaxu All (HepaRG spheroids; HepaRG, all endpoints, cut-off <100x Avg Cmaxu): +ve (<100x Avg Cmaxu)
Human plasma Cmax,u [12]: 2.315 µM
hLiMTs <25x Avg Cmax ATP (hLiMTs [15]; hLiMTs, ATP endpoint, cut-off <25x Avg Cmax): -ve
hLiMTs <100x Avg Cmaxu ATP (hLiMTs [15]; hLiMTs, ATP endpoint, cut-off <100x Avg Cmaxu): -ve
hLiMTs <25x Avg Cmax HCS (hLiMTs [15]; hLiMTs, HCS endpoints, cut-off <25x Avg Cmax): +ve
hLiMTs <100x Avg Cmaxu HCS (hLiMTs [15]; hLiMTs, HCS endpoints, cut-off <100x Avg Cmaxu): +ve (<100x Avg Cmaxu)
hLiMTs <25x Avg Cmax All (hLiMTs [15]; hLiMTs, all endpoints (ATP and HCS), cut-off <25x Avg Cmax): +ve
hLiMTs Cmax max All (hLiMTs [15]; hLiMTs, all endpoints, Cmax max used): +ve
hLiMTs Cmax min All (hLiMTs [15]; hLiMTs, all endpoints, Cmax min used): -ve
hLiMTs <10 uM All (hLiMTs [15]; hLiMTs, all endpoints, cut-off <10 uM): +ve (<10 uM)
hLiMTs <100x Avg Cmaxu All (hLiMTs [15]; hLiMTs, all endpoints, cut-off <100x Avg Cmaxu): +ve (<100x Avg Cmaxu)
Compound: CN(Cc1cnc2nc(N)nc(N)c2n1)c1ccc(C(=O)N[C@@H](CCC(=O)O)C(=O)O)cc1 [methotrexate, reference compound]
DILI severity category (Chen et al. [2016]) ([1]; LTKB DILIrank category, ref Chen et al. 2016): Most
DILI severity category (Chen 2016) ([1]; human DILI classification, LTKB DILIrank, ref Chen et al. 2016): Most
DILI severity category ([1]; human DILI severity, ref Chen et al.): Most
DILI +VE (5-8), DILI -VE (-4) ([1]; ref Chen 2016): +VE
DILI severity category ([1]; ref Chen 2016): vMost-DILI-Concern
fu [2]: 0.500
Structural based (HCI) (HepG2 cells [3]): +VE
AC50 (HepaRG spheroids; HepaRG, read-out: ATP endpoint AC50): 0.2 µM
minimal effective concentration (HepaRG spheroids; HepaRG, read-out: ATP endpoint MEC): 0.2 µM
AC50 (HepaRG spheroids; HepaRG, read-out: HCS endpoint AC50): 0.2 µM
minimal effective concentration (HepaRG spheroids; HepaRG, read-out: HCS endpoint MEC): 0.2 µM
DILI prediction HepaRG spheroids (HCS-MEC) (HepaRG spheroids; [17]): +VE (MEC < 25 × Cmax.tot cut-off)
hLiMTs ATP <100uM (hLiMTs [4]; [18]): -VE
hLiMTs/100uM, Proctor (2017) (hLiMTs [4]; hLiMTs, ATP, IC50 threshold 100 µM, ref Proctor et al. 2017): -VE
Structural based (HCI) (human hepatocytes; In vitro Assay, ref Xu 2008): -VE
DILI in vitro assay prediction, Xu (2008) (human hepatocytes; Structural based (HCI), human hepatocytes, ref Xu et al. 2008): -VE
Assigned DILI category ([5]; Chen et al. 2016 or literature alignment, ref Chen et al. 2016): 3
In vivo DILI ([5]; […]): +VE
In vivo DILI ([5]; ref Aleo 2019): +VE
In vivo DILI ([5]; ref Dawson 2012): +VE
In vivo DILI ([5]; ref Garside 2014): +VE
In vivo DILI ([5]; ref Gustafsson 2014): +VE
In vivo DILI ([5]; ref O'Brien 2006): +VE
In vivo DILI ([5]; ref Persson 2013): +VE
In vivo DILI ([5]; ref Proctor 2017): +VE
In vivo DILI ([5]; ref Schadt 2015): +VE
In vivo DILI ([5]; ref Tolosa 2012): +VE
In vivo DILI ([5]; ref Tolosa 2019): +VE
In vivo DILI ([5]; ref Vorrink 2018): +VE
In vivo DILI ([5]; ref Williams 2019): +VE
In vivo DILI ([5]; ref Xu 2008): +VE
DILI in vitro assay prediction, Schadt (2015) ([6]; BSEP & Metabolism based, ref Schadt et al. 2015): -VE
Cellular toxicity (3T3 cells) [6, 19]: -VE
GSH adduct HML [6, 19]: -VE
Hepatocyte cellular toxicity [6, 19]: -VE
MitoTox 3T3 [6, 19]: -VE
TDI CYP3A4 [6, 19]: -VE
hBSEP inhibition [6, 19]: -VE
DILI Score (FDA) (1-8) [7]: 3
Cmax [8]: 4.63 µM
Upcytes multi donor assay 14day data (Upcyte human hepatocytes): +VE
Cluster 1-6 +VE Assay [9]: -VE
Structural based (HCI) (HepG2 cells [10]; In vitro Assay, ref O'Brien 2006): +VE
DILI in vitro assay prediction, O'Brien (2006) (HepG2 cells [10]; Structural based (HCI), HepG2, ref O'Brien et al. 2006): +VE (lowest HCI endpoint IC50 (or in the absence of dose–response < 100 µM) < 30 × total human plasma exposure levels (Cmax.tot))
Cluser analysis (HepG2 cells [11]; [20]): -VE
Structural based (HCI) (HepG2 cells [11]; [20]): -VE
DILI in vitro assay prediction, Persson (2013) (HepG2 cells [11]; Structural based (HCI), HepG2, ref Persson et al. 2013): -VE
hLiMTs ATP <20 x Cmax (PHH spheroids; In vitro Assay, ref Vorrink 2018): +VE (IC20 < 20 × Cmax.tot cut-off)
DILI in vitro assay prediction, Vorrink (2018) (PHH spheroids; PHH spheroids, ATP, 14 days, IC20 < 20 × Cmax.tot, ref Vorrink et al. 2018): +VE (IC20 < 20 × Cmax.tot cut-off)
Bayesian Machine Learning DILI prediction, Williams (2019) ([13]; Bayesian modeling, ref Williams et al. 2019): +VE
Bayesian Machine Learning ([13]; In vitro Assay, ref Williams 2019): +VE
THLE-Null [14]: -VE
DILI prediction hLiMTs, HCI alone (hLiMTs [15]; HCS endpoints only, 25 × Cmax.tot cut-off): detection
AC50 (hLiMTs [15]; Homo sapiens, read-out: HCS endpoint AC50): 16.9 µM
minimal effective concentration (hLiMTs [15]; Homo sapiens, read-out: HCS endpoint MEC): 0.703 µM
DILI prediction hLiMTs (HCS-MEC) (hLiMTs [15]; [17]): +VE (MEC < 25 × Cmax.tot cut-off)
DILI prediction hLiMTs, ATP alone (hLiMTs [15]; cellular ATP only, 25 × Cmax.tot cut-off): unpredicted
Inhibition of rBsep cutoff<1& cmax u>.2 (rBsep): -VE
Inhibition of rBsep cutoff<3 (rBsep): -VE
PHH/100uM, Proctor (2017) (PHH; 2D PHH, ATP, IC50 threshold 100 µM, ref Proctor et al. 2017): -VE
PHH ATP <100uM (PHH; [18]): -VE
Partition Hybrid HRM Score ([16]; In vitro Assay, ref Aleo 2019): +VE
Ro2 Hybrid HRM Score ([16]; In vitro Assay, ref Aleo 2019): +VE
Partition Hybrid HRM Score ≥4, Aleo (2019) [16, 21]: +VE (Partition Hybrid HRM Score ≥4)
Partition Hybrid HRM Score ≥8, Aleo (2019) [16, 21]: -VE
Rule of Two hybrid HRM Score ≥3, Aleo (2019) [16, 21]: +VE (Rule of Two hybrid HRM Score ≥3)
Rule of Two hybrid HRM Score ≥8, Aleo (2019) [16, 21]: -VE
